Data taken from patent US9833447B2, “5-HT4 receptor agonist for gastroparesis” (RAQUALIA PHARMA INC., priority 2014, dated 2017).
“Also recorded” adds a separate entry of the source.

Experiments:
[1] = test system: clonidine-induced gastroparesis model in dogs; test: Gastric emptying rates in conscious dogs, clonidine-induced gastroparesis model (acetaminophen method); type: in vivo, beagle dogs; settings: clonidine 0.01 mg/kg s.c.
Description: Measurement of Gastric Emptying Rates in Conscious Dogs
All dogs are purchased from Kitayama Labes Co., Ltd. (Oriental Yeast Co., Ltd.). The animals are acclimatized to the laboratory conditions during experiments.
Dogs are fasted overnight, and then they are fed the test meal (10 mL/kg), which is ingested within 3 minutes. Blood samples are obtained at 0, 15, 30, 45, 60, 75, and 90 minutes after test meal administration. To provide a model of gastroparesis, 0.01 mg/kg of clonidine (alpha2 adrenergic agonist, Wako Pure Chemical Industries, Ltd., Osaka, Japan) is injected subcutaneously 30 minutes before test meal administration. […] Plasma is separated from the blood by centrifugation at 3,000 g for 5 min at 4° C. (himac CF15D, Hitachi Koki Co., Ltd., Tokyo, Japan). The plasma acetaminophen concentration is measured by LC-mass spectrometry.
Aliquots of dog plasma (50 microL) and 50 microL of internal standard (IS)* solution are mixed and vortexed well, and then they are diluted to a final volume of 750 microL with 50 mM ammonium acetate. As IS, [D4]4-acetamidophenol is used. Following conditioning of the solid phase extraction (SPE) 96 well plate (OASIS HLB, 10 mg/well, 30 microm, Waters Corporation, Milford, Mass., USA) with 700 microL methanol and 700 microL water in sequence, 750 microL of the plasma samples are transferred to the SPE plate for extraction. The SPE plate is then washed with 700 microL of 5% methanol. Samples are eluted twice off the SPE plate into a clean 96 deep well plate by addition of 250 microL of methanol. The eluent is then evaporated to dryness under 40° C. gentle stream of nitrogen, and reconstituted in 100 microL of acetonitrile/10 mM ammonium acetate (1/9, v/v). The samples are injected into HPLC column, and then the effluent from HPLC column is directly introduced into the turboionspray ion source, which is operated at the following conditions: * 300 ng/mL [D4]4-acetamidophenol: 10% methanol solution.

[2] = test system: healthy male human subjects; test: Gastric emptying rates in healthy male human subjects (13C-breath test, BreathID); type: in vivo
Description: Measurement of Gastric Emptying Rates in Human Study Population
Healthy male subjects, who aged between 18 and 55 years old and have a normal gastric emptying (GE) rate, are screened and enrolled into the study.
Subjects are given single oral doses of Compound A at 0.6 and 3 microg. Subjects swallowed dosing solution (20 mL) of appropriate Compound A concentrations. The dosing bottle is rinsed with 20 mL of water, and this rinse is swallowed by the subjects. The subjects then swallowed 200 mL of room temperature water, resulting in a total fluid intake at dosing of 240 mL.
GE is monitored with ^13C-breath test using the BreathiD system (Exalenz Bioscience Inc., Modin, Israel), which enables to continuously analyze the subject's breath for exhaled CO2 via a nasal cannula using molecular correlation spectrometry at the bedside. […] GE rate of solids is evaluated over the 4 hours period following ingestion of a standardized solid test meal, which are comprised of 2 slices of bread, 1 egg and 150 mL water including an egg yolk that have been mixed with 100 mg ^13C-octanoic acid (total calorific intake of 200-300 kcal). […] The parameters for GE of gastric half emptying time (GET1/2), lag phase (Tlag), gastric emptying coefficient (GEC) and gastric emptying area under the effect curve (AUEC) are automatically calculated.

[3] = test system: patients with gastroparesis; test: Gastric emptying rates in patients with gastroparesis (SmartPill); type: in vivo, human
Description: Measurement of Gastric Emptying Rates in Patients with Gastroparesis Clinical studies in patients with gastroparesis are conducted. Effect of Compound A on gastric emptying time (GET) is confirmed with SmartPill (Registered Trademark, Given Imaging Ltd.). SmartPill is an ingestible capsule that measures pressure, pH and temperature as it travels through the gastrointestinal (GI) tract to assess GI motility. The SmartPill motility monitoring test can be performed at a clinic or physician's office to evaluate motility disorders like gastroparesis (a condition in which the contents of the stomach empty too slowly) and chronic constipation. An improved gastric emptying time and colonic transit time are observed in the clinical studies.

For `COc1cc(N)c(Cl)cc1C(=O)NC1CCN(CCCOc2ccc(F)cc2)CC1OC` (stereo not shown) [Cisapride, cisapride, reference compound], the “Effect on delayed gastric emptying induced by clonidine (plasma acetaminophen)” value ([1]; cisapride 1, 3 mg/kg p.o.) was “reversed delayed gastric emptying”.

With `O=C(O)C1(CN2CCC(COc3noc4cccc(OCC(F)(F)F)c34)CC2)CCOCC1` [Compound A, 4-{[4-({[4-(2,2,2-trifluoroethoxy)-1,2-benzisoxazol-3-yl]-oxy}methyl)piperidin-1-yl]methyl}tetrahydro-2H-pyran-4-carboxylic acid] the “Effect on delayed gastric emptying induced by clonidine (plasma acetaminophen)” value ([1]; Compound A 0.3 microg/kg p.o.) was “significantly restored delayed gastric emptying induced by clonidine (0.01 mg/kg) to the normal levels; also recorded: equivalent to that of cisapride (1 mg/kg, p.o.)”, the “Severe Adverse Events and undesirable adverse events including QT/QTc prolongation” value ([2]; even at supratherapeutic doses, human healthy subjects) was “No Severe Adverse Events (SAEs) and undesirable adverse events” and the “Absolute change from baseline in gastric half emptying time (GET1/2)” value ([2]; single oral doses 0.6 and 3 microg, healthy male human subjects) was “clearly observed; also recorded: improved”. For the same molecule, the Colonic transit time [3] was “improved” and the “Gastric emptying time (GET)” value [3] was “improved”.

With `Clc1cccc(Cl)c1N=C1NCCN1` [clonidine, reference compound] the “Plasma APAP concentration at 60 min after meal administration” value ([1]; gastroparesis model induction) was “significantly decreased”.
